Measurements taken from patent US20230109489A1, “Compound and Use Thereof” (FELIQS CORPORATION, priority 2020, published 2023).

Key:
[1] = LO. scavenging ability, liposome-Fe2+ system (Fe stimulation), NBD-TEEPO fluorescence; format: biochemical; details: for R/L: ratio of activity value (R) of LO. scavenging ability to activity value (L) of LOO. scavenging ability / Fe stimulation (R): activity value of LO. scavenging ability: test compound 10 μmol/l; for Fe stimulation (R): activity value of LO. scavenging ability: FeSO4 1.0 mmol/l, liposomes, 37° C., 180 minutes, 1−(AUCSample/AUCControl)
From the text: As described above, the compound of the present invention has alkoxyl radical scavenging ability. The “alkoxyl radical scavenging ability” in the present invention means the ability to scavenge LO., for example. The LO. scavenging ability can be evaluated on the basis of its activity value, for example. The activity value of the LO. scavenging ability can be evaluated, for example, using the liposome-Fe^2+ system disclosed in WO 2019/009355. More specifically, it can be measured in a manner described in Example 1 below. As a specific example, the activity value of the LO. scavenging ability can be measured by performing the following steps (i) to (v): • (i) preparing a buffer solution containing a compound represented by the formula (A) and liposomes; • (ii) adding a divalent iron ion source material; • (iii) adding a test compound; • […] measuring a fluorescence; and • (v) determining the activity value of the test compound as per the following equation using the result of the fluorescence measurement.
Activity value of LO. scavenging ability=1−(AUCSample/AUCControl)
AUCSample: the area under the curve calculated from the fluorescence intensity measured in the presence of Fe^2+ and the test compound (n=1)
AUCControl: the area under the curve calculated from the fluorescence intensity measured in the presence of Fe^2+ and in the absence of the test compound
(§1) In step (i), the concentration of the compound represented by the formula (A) is, for example, 1 to 20 μmol/l and typically 5 μmol/l. The liposomes are prepared from, for example, egg-yolk phosphatidylcholine (Egg PC) and dihexadecyl hydrogen phosphate (DCP). The concentration of the egg-yolk phosphatidylcholine is, for example, 5 to 10 mg/ml and typically 2.5 mg/l. The concentration of the dihexadecyl hydrogen phosphate is, for example, 0.01 to 1 mg/ml and typically 0.1 mg/ml.
In step (ii), the concentration of the divalent iron ion source material is, for example, 0.5 to 5 mmol/l and typically 1 mmol/l. The divalent iron ion source material is, for example, iron(II) sulfate.
In step (iii), the concentration of the test compound is 5 to 100 μmol/l. A specific example of the concentration is 10 μmol/l.
In step (iv), the wavelength of excitation light at the time of measuring the fluorescence can be set to, for example, 470 nm; the fluorescence wavelength can be set to, for example, 530 nm; and the fluorescence intensity at 530 nm can be measured. The period for measuring the fluorescence is, for example, from 0 to 240 minutes at intervals of 0.1 to 5 minutes and typically 180 minutes at intervals of 3 minutes, with step (iii) being the start time, for example.
The following solutions were prepared: a solution A containing liposomes (10 mg/ml Egg PC, 0.4 mg/ml DCP) and 20 μmol/l NBD-TEEPO compound (compound represented by the formula (A)) in phosphate buffer (10 mmol/l, pH 7.4, 2.0% acetonitrile); and a solution B containing 4.0 mmol/l FeSO4 in distilled water. A 10 μl aliquot of each of the solutions A and B was dispensed using a Multidrop Combi (Thermo Fisher Scientific), and these aliquots were mixed together. The final concentrations of the respective components in the phosphate buffer (10 mmol/l, pH 7.4, 0.5% acetonitrile, 1% dimethyl sulfoxide (DMSO)) were as follows: the liposomes (2.5 mg/ml Egg PC, 0.1 mg/ml DCP), the NBD-TEEPO compound (5.0 μmol/l), a test compound (10 μmol/l), and FeSO4 (1.0 mmol/l). As the test compound, the compounds represented by the formulae (3) to (5) and (7) to (10) were used as compounds of examples, the compound (methyldopa) represented by the formula (1a) was used as a compound of a comparative example, and edaravone and a SCREEN-WELL® FDA-approved drug library (Enzo Life Sciences) were used as reference examples. The test compounds were dissolved in DMSO. […]

[2] = LOO. scavenging ability, liposome-AAPH system (AAPH stimulation), NBD-TEEPO fluorescence; format: biochemical; design: key: activity = 1 − (FluSample−FluBackground)/(FluControl−FluBackground); details: test compound 10 μmol/l, AAPH 20 mmol/l, liposomes, 37° C., after 40 minutes
From the text: As described above, the compound of the present invention has peroxyl radical scavenging ability. “Peroxyl radical scavenging ability” in the present invention means the ability to scavenge LOO., for example. The LOO. scavenging ability can be evaluated on the basis of its activity value, for example. The activity value of the LOO. scavenging ability can be evaluated using, for example, the liposome-AAPH (2,2′-azobis(2-amidinopropane)dihydrochloride) system disclosed in WO 2019/009355. More specifically, it can be measured in a manner described in Example 1 below. As a specific example, the activity value of the LOO. scavenging ability can be measured by performing the following steps (vi) to (x): • (vi) preparing a buffer solution containing a compound represented by the formula (A) and liposomes; • (vii) adding 2,2′-azobis(2-amidinopropane)dihydrochloride; • (viii) adding a test compound; • […] measuring a fluorescence; and • (x) determining the activity value of the test compound as per the following equation using the result of the fluorescence measurement.
Activity value of LOO. scavenging ability=1−(FluSample−FluBackground)/(FluControl−FluBackground)
Flusampie: the fluorescence intensity measured in the presence of AAPH and the test compound (n=1)
FluBackground: the fluorescence intensity measured in the absence of AAPH
FluControl: the fluorescence intensity measured in the presence of AAPH and in the absence of the test compound
as §1, with “(vi),” for “(i),”, “phosphatidylcholine” for “phosphatidylcholine (Egg PC)”, “phosphate.” for “phosphate (DCP).”, “mg/ml.” for “mg/l.”
In step (vii), the concentration of AAPH is, for example, 5 to 50 mmol/l and typically 20 mmol/l.
In step (viii), the concentration of the test compound is 5 to 100 μmol/l. A specific example of the concentration is 10 μmol/l.
In step (ix), the wavelength of excitation light at the time of measuring the fluorescence can be set to, for example, 470 nm; the fluorescence wavelength can be set to, for example, 530 nm; and the fluorescence intensity at 530 nm can be measured. The measurement of the fluorescence is performed, for example, after 1 to 120 minutes has elapsed and typically after 30 to 40 minutes has elapsed since step (viii).
The following solutions were prepared: a solution A containing liposomes (10 mg/ml Egg PC, 0.4 mg/ml DCP) and NBD-TEEPO compound (20 μmol/l) in phosphate buffer (10 mmol/l, pH 7.4, 2.0% acetonitrile); and a solution B containing 80 mmol/l AAPH in phosphate buffer (10 mmol/l, pH 7.4). A 10 μl aliquot of each of the solutions A and B was dispensed using a Multidrop Combi, and these aliquots were mixed together. The final concentrations of the respective components in the phosphate buffer (10 mmol/l, pH 7.4, 0.5% acetonitrile, 1% DMSO) were as follows: the liposomes (2.5 mg/ml Egg PC, 0.1 mg/ml DCP), the NBD-TEEPO compound (5.0 μmol/l), each of the test compounds (10 μmol/l), and AAPH (20 mmol/l).
While incubating the thus-obtained mixture at 37° C., the fluorescence intensity was measured after 40 minutes had elapsed since the mixing of the components. The fluorescence intensity was measured at an excitation wavelength of 470 nm and a fluorescence wavelength of 530 nm. Then, on the basis of the thus-measured fluorescence intensities, the activity value of the LOO. scavenging ability was calculated as per the above-described equation.

Structure (SMILES)	R/L: ratio of activity value (R) of LO. scavenging ability to activity value (L) of LOO. scavenging ability [1]	Fe stimulation (R): activity value of LO. scavenging ability [1]	AAPH stimulation (L): activity value of LOO. scavenging ability [2]	balance between the LO. scavenging ability and the LOO. scavenging ability (result in words) [1]
CC(C)OC(=O)[C@@](C)(N)Cc1ccc(O)c(O)c1 [Formula (8), isopropyl (S)-2-amino-3-(3,4-dihydroxyphenyl)-2-methylpropanoate]	0.95	0.327	0.346	
CC(C)COC(=O)[C@@](C)(N)Cc1ccc(O)c(O)c1 [Formula (5), isobutyl (S)-2-amino-3-(3,4-dihydroxyphenyl)-2-methylpropanoate]	1.19	0.539	0.452	
CCOC(=O)[C@@](C)(N)Cc1ccc(O)c(O)c1 [(10)]	0.78	0.517	0.663	
CC(C)(C)OC(=O)[C@@](C)(N)Cc1ccc(O)c(O)c1 [Formula (4), t-butyl (S)-2-amino-3-(3,4-dihydroxyphenyl)-2-methylpropanoate]	1.07	0.654	0.610	
CCCCOC(=O)[C@@](C)(N)Cc1ccc(O)c(O)c1 [Formula (9), butyl (S)-2-amino-3-(3,4-dihydroxyphenyl)-2-methylpropanoate]	1.04	0.313	0.301	
CCCOC(=O)[C@@](C)(N)Cc1ccc(O)c(O)c1 [Formula (7), propyl (S)-2-amino-3-(3,4-dihydroxyphenyl)-2-methylpropanoate]	0.88	0.454	0.517	
CCC(C)OC(=O)[C@@](C)(N)Cc1ccc(O)c(O)c1 (stereo partly drawn) [Formula (3), s-butyl (2S)-2-amino-3-(3,4-dihydroxyphenyl)-2-methylpropanoate]	1.04	0.754	0.726	
CC1=NN(c2ccccc2)C(=O)C1 [Edaravone, 5-methyl-2-phenyl-2,4-dihydro-3H-pyrazol-3-one, reference compound]	0.98	0.288	0.293	approximately the same level of scavenging ability against LO. and LOO.
